Measurements: patent US20260158149A1, “GLYCOSYLATED PRODRUGS” (UNIVERSITEIT LEIDEN, priority 2021, published 2026)
Entries after “also recorded” stand apart in the source; their conditions may differ. Like-named read-outs stand apart in the source and are kept apart here.

Columns and labels:
[1] = test system: regenerated tail fin; assay: Regeneration of the tail fin after wounding; format: in vivo, Zebrafish (Danio rerio); conditions: 5 dpf larvae, wounded at 2 dpf
Method: When the regeneration of the tail fins after wounding or the larval body length was used as a readout, chemical treatments of the embryos were started at 2 hours post fertilization (hpf) and continued until 5 dpf. During this period, solutions were refreshed daily. At 5 dpf, larvae were imaged using a LeicaMZ16FA fluorescence stereomicroscope supported by LAS 3.7 software, and the length of the larvae was measured using ImageJ software (15 larvae per treatment group). For the regeneration experiments, tail fins were amputated at 2 dpf and larvae were imaged at 5 dpf (15 larvae per treatment group). The newly grown tissue can be distinguished from the old tissue, enabling precise measurement of the size of the newly grown tissue using ImageJ software.

[2] = Whole-body cortisol measurement using ELISA; conditions: 5 dpf larvae treated from 2 hpf, non-wounded
Method: (§3) Zebrafish embryos at 2 hpf received a chemical treatment, as indicated, with daily refreshment of the solutions, until 96 hpf. Then, the treatments were stopped and embryos were incubated in egg water until 5 dpf to avoid cross-reactivity with the compounds of the cortisol antibody used in the ELISA. Then, the treatments were stopped and replaced with egg water. At 5 dpf, the larvae were collected in an Eppendorf tube and 100 μL of ice-cold phosphate-buffered saline (PBS) was added. The larvae were homogenized using a BulletBlender® for 3 min at 8,000 rpm. Ethyl acetate was added to the homogenate and the supernatant was gathered and vaporized. A volume of 150 μl of 0.2% Bovine serum albumin (Sigma Aldrich) dissolved in phosphate-buffered saline (PBS) was added to the samples and frozen. Whole-body cortisol of the zebrafish larvae was determined by ELISA (Demeditec Diagnostics GmbH, Kiel-Wellsee, Germany), following the manufacturer's instructions. In each experiment, three biological replicates were used for each treatment group, and the colorimetric assay was performed using technical duplicates.

[3] = test system: macrophages migrated to the wounded area; assay: Tail fin amputation assay: macrophage migration; format: in vivo, Zebrafish (Danio rerio); conditions: wild type larvae, 4 h after wounding
Method: Zebrafish (Danio rerio) were maintained and handled according to the guidelines from the Zebrafish Model Organism Database (https://zfin.org/) and in compliance with the directives of the local animal welfare committee of Leiden University. To maintain circadian rhythmicity, adult fish were exposed to a 14 h light and 10 h dark cycle. Fertilization was performed by natural spawning at the beginning of the light period. Fertilized eggs were collected and raised at 28° C. in egg water (60 μg/ml Instant Ocean sea salts and 0.0025% methylene blue). […]
For the tail fin amputation experiments, 3 days post fertilization (dpf) larvae from the Tg(mpx:GFP^i114/mpeg1:mCherry^umsF001) line were anesthetized in 0.02% buffered aminobenzoic acid ethyl ester (tricaine) in egg water and placed on a 2% agarose-coated petri dish. […] For imaging of larvae from the Tg(mpx:GFP^i114/mpeg1:mCherry^umsF001) line, a LeicaMZ16FA fluorescence stereomicroscope with LAS 3.7 software was used. Neutrophils were detected by GFP fluorescence and macrophages by mCherry fluorescence. The neutrophil numbers were determined by blinded manual counting in a pre-determined area. […]

[4] = Whole-body glucose measurement in larvae; conditions: 5 dpf larvae treated from 2 hpf, non-wounded
Method: (§4) Zebrafish embryos at 2 hpf received a chemical treatment, as indicated, with daily refreshment of the solutions, until 5 dpf. At 5 dpf, the larvae were collected in an Eppendorf tube and 100 μL of ice-cold glucose buffer was added to each sample. The larvae were homogenized using a BulletBlender® for 3 min at 8,000 rpm. The homogenates were then centrifuged at 4° C. for 8 min at 11000 rpm and the supernatant was stored at −20° C. Whole-body glucose concentrations were determined using a Glucose Colorimetric Assay kit (Cayman Chemical, USA), according to the manufacturer's instructions. In each experiment, three biological replicates were used for each treatment group, and the colorimetric assay was performed using technical duplicates.

[5] = test system: il1b, il6, mmp9, mmp13, il8 mRNA; assay: qPCR of pro-inflammatory genes after tail wounding; format: in vivo, Zebrafish (Danio rerio)
From the text: (§1) For the tail fin amputation experiments, 3 days post fertilization (dpf) larvae from the Tg(mpx:GFP^i114/mpeg1:mCherry^umsF001) line were anesthetized in 0.02% buffered aminobenzoic acid ethyl ester (tricaine) in egg water and placed on a 2% agarose-coated petri dish. The tails were partially amputated with a 1 mm sapphire blade (World Precision Instruments) under a Leica M165C stereomicroscope (Leica Microsystems, Wetzlar, Germany). Chemical treatment (or 0.1% DMSO as vehicle treatment) was started at 2 h before the amputation (pretreatment) and was continued for 4 h after the tail fin amputation (20 larvae per group, unless indicated otherwise), at which time point the larvae were fixed in 4% paraformaldehyde (PFA) overnight at 4° C. and stored at 4° C. until further examination. In some experiments, a 24 h treatment with miglustat, ME656 or MZ31 was started at 2 dpf, and these treatments were continued during the pretreatment and treatment with the other chemicals. For imaging of larvae from the Tg(mpx:GFP^i114/mpeg1:mCherry^umsF001) line, a LeicaMZ16FA fluorescence stereomicroscope with LAS 3.7 software was used. Neutrophils were detected by GFP fluorescence and macrophages by mCherry fluorescence. The neutrophil numbers were determined by blinded manual counting in a pre-determined area. When larvae from gba2^−/− or gr^s357mutant lines were used, neutrophil labeling was performed with the TSA fluorescein detection kit (PerkinElmer) for specific staining of Myeloperoxidase (Mpx)-positive cells, following the manufacturer's instructions.
(§2) For experiments in zebrafish, gene expression was measured using 3 dpf embryos. Groups of 15 larvae were collected in TRIzol reagent (Invitrogen) and mRNA was isolated using the miRNeasy mini kit (Qiagen), according to the manufacturer's instructions. For experiments in HeLa cells, samples were collected from a single well from 6 well plates (80% confluent) in TRIzol reagent and mRNA was isolated using the RNeasy mini kit. Zebrafish and cells samples were treated with DNAse utilizing the DNA-Free™ kit (Ambion). The cDNA synthesis was performed using iScript cDNA synthesis kit (Bio-Rad) using 1 μg of RNA per sample. For qPCR, 10 μM of forward and 10 μM of reverse primer, 12.5 μL of iQ SYBR Green Supermix (Bio-Rad), and 2 μL of cDNA were added to the qPCR reaction mixture. […] The qPCR reactions were performed on a MyiQ-single-color real-time PCR detection system (Bio-Rad) with initial denaturation for 3 min at 95° C. and 40 cycles of 15 s at 95.5° C., 15 s at 60° C., and 30 s at 72° C. Cycle threshold values (Ct values, i.e. the cycle numbers at which a threshold value of the fluorescence intensity was reached) were determined for each sample. The gene expression level for each sample was normalized using the expression of ppial (peptidylprolyl isomerase Ab (cyclophilin A)) for zebrafish samples, and 18S rRNA for human cells. The fold change per sample (compared to the respective control group) was calculated using the ΔΔCt method.

[6] = test system: Gr; assay: Transactivation activity of Gr in Tg(9xGCRE-HSV.UI23:EGFP) reporter line; format: in vivo, Zebrafish (Danio rerio); conditions: 24 h treatment, 3 dpf larvae
Method: The Tg(9xGCRE-HSV.UI23:EGFP)^ia20 zebrafish reporter line expresses enhanced green fluorescent protein (EGFP) under the control of a promoter containing an array of nine GREs. To study the effect of chemical treatments on the transactivation activity of the Gr, 15 zebrafish embryos per group (2 dpf) were treated with the indicated compounds for 24 hours. The transactivation activity of Gr induced by the treatments was assessed using a LeicaMZ16FA fluorescence stereomicroscope supported by LAS 3.7 software. The integrated intensity of the EGFP signal in the larvae was determined using ImageJ software.

[7] = test system: neutrophils migrated to the wounded area; assay: Tail fin amputation assay: neutrophil migration to the wounded area; format: in vivo, Zebrafish (Danio rerio); conditions: for inhibition of neutrophil migration in Gr deficient larvae: gr mutant line (gr-/-); for migration of neutrophils towards the wounded area: wild type larvae, 4 h after tail wounding; for reduction in neutrophil migration in the presence of MZ31: GBA2 inhibitor MZ31
Method: Zebrafish (Danio rerio) were maintained and handled according to the guidelines from the Zebrafish Model Organism Database (https://zfin.org/) and in compliance with the directives of the local animal welfare committee of Leiden University. To maintain circadian rhythmicity, adult fish were exposed to a 14 h light and 10 h dark cycle. Fertilization was performed by natural spawning at the beginning of the light period. Fertilized eggs were collected and raised at 28° C. in egg water (60 μg/ml Instant Ocean sea salts and 0.0025% methylene blue). The following zebrafish lines were used in this study: AB/TL wild type, the transgenic lines Tg(mpx:GFP^i114/mpeg1:mCherry^umsF001) (Bernut et al., (2014). Mycobacterium abscessus cording prevents phagocytosis and promotes abscess formation. Proc Natl Acad Sci USA 111, E943-952; Renshaw et al., (2006). A transgenic zebrafish model of neutrophilic inflammation. Blood 108, 3976-3978), and Tg(9xGCRE-HSV.UI123:EGFP)^ia20 (Benato et al., (2014). A living biosensor model to dynamically trace glucocorticoid transcriptional activity during development and adult life in zebrafish. Mol Cell Endocrinol 392, 60-72), and the mutant lines gba2^−/− (Lelieveld et al., (2019). Role of beta-glucosidase 2 in aberrant glycosphingolipid metabolism: model of glucocerebrosidase deficiency in zebrafish. J Lipid Res 60, 1851-1867) and gr^s357 (Ziv et al., (2013). An affective disorder in zebrafish with mutation of the glucocorticoid receptor. Mol Psychiatry 18, 681-691).
as §1

[8] = test system: Gr target genes fkbp5, pck1 and nfkbiaa; assay: qPCR of Gr target genes fkbp5, pck1, nfkbiaa; format: in vivo, Zebrafish (Danio rerio)
Method: as §2

[9] = zebrafish, in vivo
Method: as §4

[10] = target: T1, human GR (Homo sapiens, UniProt P04150); assay: PolarScreen Glucocorticoid Receptor Competitor Assay; conditions: glucosylation or gentiobiosylation of Pdn
T1 sequence (P04150 1-777): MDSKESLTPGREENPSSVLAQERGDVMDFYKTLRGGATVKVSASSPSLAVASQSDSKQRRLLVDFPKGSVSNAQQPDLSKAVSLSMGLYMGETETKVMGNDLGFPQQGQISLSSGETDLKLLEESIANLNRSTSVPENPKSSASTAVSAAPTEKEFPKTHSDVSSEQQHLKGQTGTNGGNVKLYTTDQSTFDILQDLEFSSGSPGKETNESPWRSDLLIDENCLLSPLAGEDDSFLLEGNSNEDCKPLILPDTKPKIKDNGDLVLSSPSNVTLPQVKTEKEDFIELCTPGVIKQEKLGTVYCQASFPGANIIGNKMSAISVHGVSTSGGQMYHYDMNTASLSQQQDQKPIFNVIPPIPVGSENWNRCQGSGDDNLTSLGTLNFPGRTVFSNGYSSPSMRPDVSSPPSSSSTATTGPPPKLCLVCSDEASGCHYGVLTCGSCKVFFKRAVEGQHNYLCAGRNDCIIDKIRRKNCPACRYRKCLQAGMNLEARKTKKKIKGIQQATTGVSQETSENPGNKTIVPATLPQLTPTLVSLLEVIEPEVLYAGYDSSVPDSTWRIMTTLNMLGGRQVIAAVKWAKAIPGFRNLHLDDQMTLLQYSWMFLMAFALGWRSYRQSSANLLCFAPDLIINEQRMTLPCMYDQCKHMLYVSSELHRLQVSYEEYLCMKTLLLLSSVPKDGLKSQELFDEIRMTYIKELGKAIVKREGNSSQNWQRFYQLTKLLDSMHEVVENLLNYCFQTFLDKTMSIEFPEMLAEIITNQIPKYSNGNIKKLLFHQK

[11] = zebrafish, in vivo; remark: listed apart in the source
Method: as §3

| SMILES | tissue regeneration (length of regenerated tail fin) [1] | whole body cortisol level [2] | migration of macrophages [3] | whole body glucose level [4] | wounding-induced increase in expression of il1b, il6 and mmp9 [5] | transactivation activity of Gr (GFP signal in GRE:GFP reporter fish line) [6] | inhibition of neutrophil migration in Gr deficient larvae [7] | migration of neutrophils towards the wounded area [7] | expression of Gr target genes fkbp5, pck1 and nfkbiaa [8] | wounding-induced increase in expression of il1b, il6, mmp9 and mmp13 [5] | reduction in neutrophil migration in the presence of MZ31 [7] | expression of the pro-inflammatory genes il1b, il6 and il8 [5] | whole body glucose level [9] | whole body glucose level under wounding conditions with MZ31 [9] | decrease in the binding affinity relative to Pdn [10] | whole body cortisol level [11] | whole body cortisol level under wounding conditions with MZ31 [11] |
| --- | --- | --- | --- | --- | --- | --- | --- | --- | --- | --- | --- | --- | --- | --- | --- | --- | --- |
| C[C@H]1C[C@H]2[C@@H]3CCC4=CC(=O)C=C[C@]4(C)[C@@]3(Cl)[C@@H](O)C[C@]2(C)[C@@]1(O)C(=O)CO [Bec, beclomethasone] | decrease | decrease in cortisol level; also recorded: decreased the cortisol level; also recorded: significantly larger decrease | leaves the migration of macrophages unaffected | increased the glucose concentration | strongly suppressed | large increase in GFP signal | absent | decreases the migration of neutrophils; also recorded: inhibits neutrophil migration; also recorded: inhibited the neutrophil migration | – | – | – | – | – | – | – | – | – |
| C[C@@H]1C[C@H]2[C@@H]3CCC4=CC(=O)C=C[C@]4(C)[C@@]3(F)[C@@H](O)C[C@]2(C)[C@@]1(O)C(=O)CO[C@@H]1O[C@H](C(=O)O)[C@@H](O)[C@H](O)[C@H]1O [GDex, dexamethasone-glucuronide] | – | very minor decrease in cortisol level; also recorded: only slightly reduced the cortisol concentrations | without any effect on macrophage migration | did not increase the glucose level | – | did not induce the transactivation activity of the Gr | absent | inhibits neutrophil migration; also recorded: inhibited the neutrophil migration | did not induce the transactivation activity of the Gr | strongly reduced | independent of GBA2 activity | – | – | – | – | – | – |
| C[C@]12C=CC(=O)C=C1CC[C@@H]1[C@@H]2[C@@H](O)C[C@@]2(C)[C@H]1CC[C@]2(O)C(=O)CO[C@@H]1O[C@H](CO)[C@@H](O)[C@H](O)[C@H]1O [GPdn, 21-O-Glucose-Prednisolone] | – | – | – | – | – | neither GPdn nor GbPdn induced the transactivation activity of the Gr | – | inhibited the neutrophil migration | lack of effect | – | independent of GBA2 activity | these effects were similar to those observed upon Pdn and GPdn treatment | did not increase the glucose level | reduced upon treatment with MZ31 | ~30 fold | only slightly reduced the cortisol concentrations | reduced upon treatment with MZ31 |
